Data set [1] concerns Ambrosia trifida L. (Giant ragweed). In words: H2O2 accumulation in glyphosate treated leaves by DAB staining. Format: in vivo. As for the experimental part: In an embodiment, the H2O2 presence is visually detected after 3,3′-diaminobenzidine (DAB) staining using procedures described by Thordal-Christensen et al., ([…]). […] At each harvested time, leaf discs are floated in a solution of DAB-Hydrochloric acid (HCl) (1 mg/ml) (Sigma, St. Louis, Mo.) in a beaker at room temperature and allowed to absorb the solution through the cut ends. After 3 hours of incubation, leaf discs are decolorized by boiling in 90% ethanol for ten minutes to remove chlorophyll, before visual examination. Brown precipitates form at sites of H2O2 accumulation and data collected will be by visual detection of H2O2 accumulation as noted by intensity of brown precipitates on treated leave discs. The hypersensitive reaction (HR) has been used as a visual marker of biotic interactions and induction of pathogen response (PR) genes (S) but this has been also shown in plant responses to abiotic stresses such as excess excitation energy (EEE) (Muhlenbock et al., 2008).

Data set [2] shares this test system. Description: 31P NMR imaging of glyphosate infiltrated leaves. Format: in vivo.
Data set [3] has the same test system. In words: Tissue specific (differential exposure) glyphosate treatment, translocation. As to conditions: uncovered portions sprayed with 0.7 kg ae/ha.
The test system is the same in data set [4]. In words: 14C-glyphosate uptake and translocation. Format: in vivo. As to conditions: two mature leaves treated with 14C-glyphosate. An excerpt:
In the study, the treated leaf included two mature leaves treated with ^14C-glyphosate. Mobilized distribution includes untreated mature leaves, meristems and roots.

A further data set deals with EPSPS. In words: EPSPS sensitivity to glyphosate challenge. Format: biochemical, Ambrosia trifida.
Data set [5] relates to Ambrosia trifida L. (Giant ragweed). In words: Chlorophyll fluorescence measurements / rapid necrosis of mature leaves after glyphosate treatment. Format: in vivo. Particulars: 1x field rate glyphosate. As for the experimental part: To quantify early physiological reactions related to this resistance mechanism, a method was developed using chlorophyll fluorescence measurements to determine photosynthetic activity. […] Treatments at each time point consisted of glyphosate-resistant and glyphosate-sensitive A. trifida untreated and treated leaves.
In an embodiment, to measure fluorescence the maximum quantum efficiency of photosystem II (Fv/Fm) is determined using an Imaging-PAM fluorometer IMAG-MAX/GS with a mounted LED-Array Illumination Unit IMAG-MAX/L and CCD-Camera (Heinz Walz GmbH, 91090 Effeltrich, Germany) along with ImagingWin software. Briefly, dark acclimated plants are exposed to a short saturating light pulse to maximally reduce the QA pool and where fluorescence is increased to maximum values (Fm) and this is followed by a weak non-actinic modulated measuring light to determine the minimal level of fluorescence (F0) (Oxborough, 2004).

The test system is the same in data set [6]. Description: Foliar glyphosate treatment of whole plants: fresh weight and visual injury. Format: in vivo. An excerpt: Significance (<0.05) between populations (within rates) is indicated by letters (a, b). […] Significance (<0.05) between rates (within populations) is indicated by letters (a, b, c).
Foliar application of herbicide solution was applied using a compressed-air bench top track sprayer at a pressure of 249 kPa and a volume of 187 L of spray solution ha-1. […] All plants were at the third node growth stage at the time of treatment.

[7] abbreviates: three weeks after treatment, 1x glyphosate field rate.

On to `O=C(O)CNCP(=O)(O)O` [glyphosate, N-(phosphonomethyl)glycine], for which, in data set [1], the “H2O2 production, glyphosate sensitive leaves” value is given as “no H2O2 production” and the “time to significant H2O2 accumulation, mature leaves of glyphosate-resistant plants” value was at most 2 h. Besides, the “time to rapid cell death, glyphosate-resistant plants” value in data set [2] was at most 16 h. The “cell death, glyphosate-sensitive plants” value in data set [2] (within 16 hours) is “limited cell death”. In data set [3], the “translocation of glyphosate away from treated tissues, glyphosate-resistant plants” value was “did not translocate glyphosate” and the “translocation of glyphosate away from treated tissues, glyphosate-sensitive plants” value was “glyphosate-sensitive plants did”. In data set [4], the “absorbed glyphosate translocated, glyphosate resistant plants” value was found to be 28% and the “absorbed glyphosate translocated, glyphosate-sensitive plants” value is given as 54%. Besides, the “EPSPS sensitivity to glyphosate challenge, glyphosate-resistant vs glyphosate-sensitive plants” value in the data set with EPSPS was “no difference”. The “time to rapid necrosis in mature leaves, glyphosate-resistant plants” value in data set [5] is at most 12 h. The “visual plant injury of resistant plants compared to sensitive plants” value in data set [6] (1x, 2x, 4x treatment levels, after twenty-one days) is “decreased visual injury compared to the sensitive plants”. For the same compound, the “visual injury rating (% dead), resistant plants compared to sensitive plants” value in data set [6] (3 weeks after treatment, n=63) is on record as “much lower rating of % dead compared to the sensitive plants”. Moreover, in data set [6] (setting [7]), the “plant response, glyphosate-resistant plant” value was “recovered from the glyphosate treatment” and the “plant response, glyphosate-sensitive plant” value is recorded as “extremely decline”. Moreover, the “fresh weight of resistant plants compared to sensitive plants” value in data set [6] (whole plant tissue 21 days after treatment, 1x=0.7, 2x=1.4, 4x=2.8 kg ae ha-1) is listed as “increased fresh weight at all treatment levels compared to the sensitive plants”.

(Values after patent US20150203924A1, “[…] FOR HERBICIDE RESISTANCE IN PLANTS” (PURDUE RESEARCH FOUNDATION, priority 2013, published 2015).)
